According to EPA's ToxRefDB 2:

Assays:
rat [1] = conditions: Fertility (Segment I); sprague dawley; Injection; Intravenous; dose end: 20 GD; group: parental; systemic / in life observation / body weight / body weight gain + systemic / in life observation / food consumption / food consumption + …
rat [2] = conditions: Prenatal developmental toxicity study, sprague dawley, Injection, Intravenous, dose end: 17 GD
rabbit = conditions: Prenatal developmental toxicity study, new zealand white, Injection, Intravenous, dose end: 19 GD
[3] = group: developmental, developmental / developmental malformation / bone / incomplete ossification + developmental / developmental malformation / bone / knobby + …
[4] = group: developmental, developmental / developmental malformation / ureter / convoluted
[5] = group: maternal, systemic / in life observation / body weight / body weight gain
[6] = group: maternal, systemic / in life observation / body weight / body weight gain + systemic / in life observation / food consumption / food consumption
[7] = group: developmental, developmental / developmental malformation / heart / enlarged aortic valve
[8] = group: maternal, reproductive / offspring survival early / litter size / litter size

CCOC(=O)c1ccc(C2CCC(NC[C@H](O)COc3ccc(O)c(NS(C)(=O)=O)c3)CC2)cc1.Cl (stereo partly drawn)
LEL (rat [1]): 160 mg/kg/day | LOAEL (rat [1]): 160 mg/kg/day | LOAEL (rat [2]; [3]): 160 mg/kg/day | NOAEL (rat [2]; [3]): 40 mg/kg/day | LEL (rat [2]; [4]): 10 mg/kg/day | NEL (rat [2]; [4]): < 10 mg/kg/day | LEL (rat [2]; [5]): 10 mg/kg/day | NEL (rat [2]; [5]): < 10 mg/kg/day | LOAEL (rat [2]; [6]): 160 mg/kg/day | NOAEL (rat [2]; [6]): 40 mg/kg/day | LEL (rabbit; [7]): 160 mg/kg/day | LOAEL (rabbit; [7]): > 160 mg/kg/day | NEL (rabbit; [7]): 80 mg/kg/day | NOAEL (rabbit; [7]): ≥ 160 mg/kg/day | LOAEL (rabbit; [8]): 80 mg/kg/day | NOAEL (rabbit; [8]): 40 mg/kg/day | LEL (rabbit; group: maternal, reproductive / offspring survival early / litter size / litter size + reproductive / reproductive performance / postimplantation loss / …): 80 mg/kg/day | NEL (rabbit; group: maternal, reproductive / reproductive performance / postimplantation loss / postimplantation loss + reproductive / reproductive performance / …): 40 mg/kg/day
